Source: article PMC4057422, “Apoptotic Death of Prostate Cancer Cells by a Gonadotropin-Releasing Hormone-II Antagonist” (PLoS ONE, 2014)
Read-outs that look alike come from different tables or passages of the source. Square brackets hold non-standard residues; d marks the D form. Ends that are not written are not given here. Peptide text beside a SMILES is read from it. dPhe(4-Cl) = N[C@H](Cc1ccc(Cl)cc1)C(=O)O; d2Nal = N[C@H](Cc1ccc2ccccc2c1)C(=O)O; dCit = NC(=O)NCCC[C@@H](N)C(=O)O; d3Pal = N[C@H](Cc1cccnc1)C(=O)O

How the values were obtained:
PC3 cells [1] = type: cell-based, human; settings: for growth inhibition of PC3 cells: 10 µM
Experimental: (§1) Cells were seeded in 12-well plates in triplicate (1×10^4 cells/well). After 24 h, cells were treated with the indicated concentrations of GnRH-II antagonists solubilized in 0.1% DMSO every 24 h for the indicated number of days. Then, cells were washed with phosphate-buffered saline (PBS), dissociated with trypsin/EDTA, and re-suspended in 500 µl complete growth media. Trypan blue (0.4%) dye-excluding cells were counted under an inverted microscope (Olympus, Tokyo, Japan).

PC3 xenograft tumor = settings: cited from earlier work; for growth of tumor formed by implanted PC3 cells: previous studies, ref [27], [28]
Experimental: PC3 cells were implanted into the flanks of nude mice. After tumor formation, SN09-2 was injected into the mice at different concentrations for 25 consecutive days. […] In the group treated with 0.1 mg SN09-2, tumor volumes were reduced by 27%, compared with the vehicle-treated group (Fig. 7A, B). […] The di ... || Both GnRH-I agonists and antagonists are able to inhibit the growth of cancer cells in sex hormone-regulated tissues including ovarian cancer and prostate cancer, by directly stimulating cell death pathways as well as by decreasing gonadotropin and sex hormone levels, [32], [33]. Because of the sequence similarity between GnRH-I and GnRH-II, GnRH-II and its antagonists are considered to exert similar effects on these types of cancer, although its receptor has not been identified in human and its action mechanisms have not been well elucidated. In some reports, GnRH-II has been shown ...

[2] = biological target: bull frog GnRHR-II (bfGnRHR-II) (Aquarana catesbeiana, UniProt Q9DE60); test: Reporter gene assay (SRE-luc), antagonism of GnRH-II at bfGnRHR-II; type: cell-based; settings: CV-1 cells, GnRH-II 1 nM, antagonist 6 h, luciferase normalized to β-gal, at least three independent experiments
bull frog GnRHR-II (bfGnRHR-II), sequence (Q9DE60 entry or part of it): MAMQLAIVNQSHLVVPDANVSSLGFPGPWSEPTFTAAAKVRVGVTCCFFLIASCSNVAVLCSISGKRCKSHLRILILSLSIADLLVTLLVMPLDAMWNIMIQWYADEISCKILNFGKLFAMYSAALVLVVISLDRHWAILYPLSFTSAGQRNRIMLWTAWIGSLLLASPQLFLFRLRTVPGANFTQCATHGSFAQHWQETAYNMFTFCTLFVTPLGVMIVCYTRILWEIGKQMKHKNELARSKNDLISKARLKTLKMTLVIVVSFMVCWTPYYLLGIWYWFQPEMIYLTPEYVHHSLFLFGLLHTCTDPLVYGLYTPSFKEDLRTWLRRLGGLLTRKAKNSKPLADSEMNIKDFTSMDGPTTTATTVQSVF
Experimental: (§2) CV-1 Cells were culture overnight in 24-well plates and subsequently transfected with liposome complex containing pGL3/SRE-luc plasmids with bull frog GnRHR-II (bfGnRHR-II) or green monkey GnRHR-II (gmGnRHR-II). Another 48 h later, cells treated with GnRH-II (1 nM for bfGnRHR-II, 10 nM gmGnRHR-II) and different concentration of SN09-2 or Trp-1 for 6 h were washed with PBS and solublized with lysis buffer. Luciferase activity of cell extracts was determined using the standard luciferase assay system from BioTek Instrument, Inc. (Winooski, VT). To determine transfection efficiency, luciferase activities were normalized to the β-gal activity. All data are calculated from at least three independent experiments normalized to untreated groups.

[3] = biological target: T1, green monkey GnRHR-II (gmGnRHR-II) (Chlorocebus aethiops, UniProt Q95MH6); test: Reporter gene assay (SRE-luc), antagonism of GnRH-II at gmGnRHR-II; type: cell-based
T1 construct: expressed in transfected cells; host or cells: CV-1 cells
T1 sequence (Q95MH6 1-379): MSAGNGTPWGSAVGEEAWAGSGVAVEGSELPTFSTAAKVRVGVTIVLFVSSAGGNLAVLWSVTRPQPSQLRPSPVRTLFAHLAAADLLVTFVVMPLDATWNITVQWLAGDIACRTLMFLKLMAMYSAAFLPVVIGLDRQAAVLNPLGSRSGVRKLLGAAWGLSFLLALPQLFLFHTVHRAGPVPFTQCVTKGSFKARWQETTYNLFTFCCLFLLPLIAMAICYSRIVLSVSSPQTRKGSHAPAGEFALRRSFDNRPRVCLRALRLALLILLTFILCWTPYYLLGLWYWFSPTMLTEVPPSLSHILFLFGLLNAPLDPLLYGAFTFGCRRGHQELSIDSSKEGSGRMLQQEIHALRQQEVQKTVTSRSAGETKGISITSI
Experimental: as §2

PC3 cells [4] = settings: FITC-conjugated form, prostate cancer cells; ref [28]; cited from earlier work
Excerpt: In previous reports, we and other groups observed that radiolabeled GnRH-II bound to prostate cancer cells through interaction with an approximately 80-kDa protein whose identity was designated as glucose-regulated protein 75 (GRP75) based on liquid chromatography-electrospray ionization-tandem mass spectrometry, [28], [29]. […] Since GRP75 is found predominantly in mitochondria, the final destination of SN09-2 may not be the cell surface. To explore the subcellular location of the antag ...

cytochrome c (PC3 cells) = settings: ref [28]; cited from earlier work
Excerpt: (§3) Mitochondrial proteins play pivotal roles in organelle-specific functions such as energy conversion, calcium hemeostasis, ROS generation, and electron transport, [40]. The disturbance of such mitochondrial functions is a critical step towards cell death through the activation of either apoptotic or autophagic pathways, [42]. GRP75 a mitochondrial chaperon is an essential protein for mitochondria biogenesis by refolding and sorting mitochondrial proteins. Elevation of GRP75 is easily observed in various cancer cells, while knockdown of the protein induces mitochondrial dysfunc ...

prostate cancer cells [5] = settings: ref [28]; cited from earlier work
Excerpt: as §3

caspase-3 (PC3 cells) = settings: ref [28], cited from earlier work
Excerpt: as §3, with “Next, we examined caspase-3 activation by SN09-2. […] We also investigated caspase-3 cleavage in LNCaP and DU145 cells. […] Immunocytochemistry for actively cleaved caspase- ... || Mitochondrial” for “Mitochondrial”

ovarian cancer cells = settings: cited from earlier work
Excerpt: GnRH-II is likely to function on prostate cancer cells by interacting with unknown proteins, based on our previous observation that radiolabeled GnRH-II was able to bind various human prostate cancer cells. […] Because of the sequence similarity between GnRH-I and GnRH-II, GnRH-II and its antagonists are considered to exert similar effects on these types of cancer, although its receptor has not been identified in human and its action mechanisms have not been well elucidated. In some reports, GnRH-II has been shown ...

prostate cancer cells [6] = settings: cited from earlier work; for displacement of radiolabeled GnRH-II binding: various human prostate cancer cells, ref [27]
Excerpt: GnRH-II is likely to function on prostate cancer cells by interacting with unknown proteins, based on our previous observation that radiolabeled GnRH-II was able to bind various human prostate cancer cells.

human T cells = settings: ref [20]; cited from earlier work
Excerpt: In most vertebrates, the other type of GnRH, called GnRH-II, is identified, which is structurally conserved in evolution from fish to mammals [12]–[14]. GnRH-II is expressed not only in the brain but also in peripheral reproductive and immune tissues. This wide expression pattern may confer a variety of physiological functions on the peptide. Similar to GnRH-I, GnRH-II is able to regulate reproduction in females by stimulating the secretion of LH and FSH [16], [17].

DU145 cells = test: Cell viability assay, DU145; type: cell-based, human; settings: 10 µM, 5% serum, 3 days
Experimental: as §1

[7] = Tolerability in nude mice (histology, blood chemistry, injection site); type: in vivo, male athymic nude mice (BALB/c-nu)
Experimental: Six-week-old male athymic nude mice (BALB/c-nu) were obtained from Harlan (Houston, TX). Mice were housed under specific pathogen-free conditions in an individually ventilated caging system. All experimental procedures were performed after receiving approval from the Institutional Animal Care and Use Committee of Clinical Research Institute in Seoul National University Hospital. PC3 cells (6×10^6) were injected into the right flank of the mice. Ten days after cell injection, tumors with volumes of around 20–25 mm^3 developed in most mice; tumor volumes were measured every day. Tumor volumes were determined by two perpendicular dimensions [length (L) and width (W)] and the height (H), measured using Vernier calipers (the formula is V = (π/6) × (W×L×H). From this time, SN09-2 (acetic acid form) dissolved in 5% N,N-dimethylacetamide (DMA), 10% glycerol, and 85% distilled water which is biocompatible solvent were subcutaneously injected into the mice for 25 consecutive days. The tumor size in each mouse was measured every day. Six to seven mice were used for each experimental group.

[8] = Dissolution in solvents / at the injection site; type: physicochemical

Ac-[d2Nal][dPhe(4-Cl)][d3Pal]SY[dCit]WYP[dA]-NH2 [Trp-1, GnRH-II antagonist of the authors' earlier report]
PC3 cell growth inhibition, dose response (PC3 cells [1]; different concentrations, 5% serum, 3 days, versus DMSO control): significantly attenuated cell growth in a dose-dependent manner
inhibitory activity on tumor volume (PC3 xenograft tumor; 0.1 mg, PC3 xenograft, quoted comparison, ref [28]): 60%
growth of tumor formed by implanted PC3 cells (PC3 xenograft tumor): inhibited growth of the tumor
IC50 [2]: 250 nM
antagonism of GnRH-II at gmGnRHR-II ([3]; CV-1 cells, SRE-luc reporter, GnRH-II 10 nM, antagonist 6 h, luciferase normalized to β-gal, at least three independent experiments): partial
mitochondrial accumulation in presence of unlabeled GnRH-II (PC3 cells [4]): attenuated by unlabeled GnRH-II
cytochrome c release (cytochrome c (PC3 cells)): does not induce
autophagic cell death (prostate cancer cells [5]): induces autophagic cell death
activation of the apoptotic machinery (caspase-3 (PC3 cells); previous results): could not trigger the activation of the apoptotic machinery
caspase-3 activation (caspase-3 (PC3 cells)): does not induce

FITC-conjugated GnRH-II: FITC-conjugated GnRH-II (QHWSHGWYPG; ends and bridges not checked; also: FITC-conjugated, site not given here; UniProt O43555 24-33, looked up)
mitochondrial accumulation in presence of unlabeled GnRH-II (PC3 cells [4]): attenuated by unlabeled GnRH-II

GnRH-II: the other type of GnRH, structurally conserved in evolution from fish to mammals (QHWSHGWYPG; ends and bridges not checked; UniProt O43555 24-33, looked up)
inhibition of proliferation of ovarian cancer cells (ovarian cancer cells; ref [26], [27]): inhibit the proliferation
anti-proliferative effect in ovarian cancer, versus GnRH-I (ovarian cancer cells; ref [33]): stronger anti-proliferative effect than that of GnRH-I
inhibition of proliferation of prostate cancer cells (prostate cancer cells [6]; ref [26], [27]): inhibit the proliferation
displacement of radiolabeled GnRH-II binding (prostate cancer cells [6]): displaced by unlabeled GnRH-II
laminin receptor expression (human T cells): stimulates laminin receptor expression

GnRH-I: gonadotropin-releasing hormone-I synthesized in the hypothalamus
displacement of radiolabeled GnRH-II binding (prostate cancer cells [6]): not by GnRH-I

cetrorelix
growth of tumor formed by implanted PC3 cells (PC3 xenograft tumor): very weak effect on tumor growth
block of GnRH-II-induced laminin receptor expression (human T cells): not blocked

CC(=O)N[C@H](Cc1ccc2ccccc2c1)C(=O)N[C@H](Cc1ccc(Cl)cc1)C(=O)N[C@H](Cc1cccnc1)C(=O)N[C@@H](CO)C(=O)N[C@@H](Cc1ccccc1)C(=O)N[C@H](CCCCN)C(=O)N[C@@H](Cc1c[nH]c2ccccc12)C(=O)N[C@@H](Cc1ccc(O)cc1)C(=O)N[C@@H](CCCNC(=N)N)C(=O)N[C@H](C)C(N)=O [SN09-2, Ac-D-Nal(2)-D-phe(4Cl)-D-Pal(3)-Ser-Phe-D-Lys-Trp-Tyr-Arg-D-Ala-NH2] (Ac-[d2Nal][dPhe(4-Cl)][d3Pal]SF[dK]WYR[dA]-NH2)
growth inhibition of PC3 cells (PC3 cells [1]; 5% serum, 4 days): 91%
growth inhibition of PC3 cells (PC3 cells [1]; 10% serum, 4 days): 88%
growth inhibition of PC3 cells (PC3 cells [1]; higher serum concentrations, 4 days): more than 85%
growth inhibition of PC3 cells (PC3 cells [1]; low serum concentrations (less than 2% FBS), within 4 days): more than 95%
growth inhibition of DU145 cells (DU145 cells): ≈ 50%
liver and kidney histopathology ([7]; after 25 days subcutaneous treatment): no histo-pathological abnormalities
serum alkaline phosphatase, aspartate aminotransferase, alanine aminotransferase, urea nitrogen, creatinine, total bilirubin ([7]; after 25 days subcutaneous treatment, data not shown): did not differ between vehicle and SN09-2-treated mice
skin irritation / densely populated cells at the injection site ([7]; mice, several days after subcutaneous injection): no skin irritation or densely populated cells were detected
edema-like phenotype ([7]; mice, subcutaneous treatment): not observed
adverse effects to the animal ([7]; xenograft model): without any apparent adverse effects
IC50 [3]: 1900 nM
solubility in 5% DMA ([8]; 5% N,N′-dimethylacetamide (DMA) formulation): appeared well dissolved
solubility in DMSO ([8]; DMSO, solvent for in vitro treatment): dissolved well in DMSO
